Results on 31 compounds are retold here after patent publication US20100105651A1, “ANTAGONISTS OF SNS SODIUM CHANNELS” (priority 2005, published 2010).

SMILES strings stand for the structures.

For one experiment, the target named is T1, human NaV1.8 (hNaV1.8) ion channel (Homo sapiens, UniProt Q9Y5Y9).
T1 construct: expressed in transfected cells
T1 sequence (Q9Y5Y9 whole entry): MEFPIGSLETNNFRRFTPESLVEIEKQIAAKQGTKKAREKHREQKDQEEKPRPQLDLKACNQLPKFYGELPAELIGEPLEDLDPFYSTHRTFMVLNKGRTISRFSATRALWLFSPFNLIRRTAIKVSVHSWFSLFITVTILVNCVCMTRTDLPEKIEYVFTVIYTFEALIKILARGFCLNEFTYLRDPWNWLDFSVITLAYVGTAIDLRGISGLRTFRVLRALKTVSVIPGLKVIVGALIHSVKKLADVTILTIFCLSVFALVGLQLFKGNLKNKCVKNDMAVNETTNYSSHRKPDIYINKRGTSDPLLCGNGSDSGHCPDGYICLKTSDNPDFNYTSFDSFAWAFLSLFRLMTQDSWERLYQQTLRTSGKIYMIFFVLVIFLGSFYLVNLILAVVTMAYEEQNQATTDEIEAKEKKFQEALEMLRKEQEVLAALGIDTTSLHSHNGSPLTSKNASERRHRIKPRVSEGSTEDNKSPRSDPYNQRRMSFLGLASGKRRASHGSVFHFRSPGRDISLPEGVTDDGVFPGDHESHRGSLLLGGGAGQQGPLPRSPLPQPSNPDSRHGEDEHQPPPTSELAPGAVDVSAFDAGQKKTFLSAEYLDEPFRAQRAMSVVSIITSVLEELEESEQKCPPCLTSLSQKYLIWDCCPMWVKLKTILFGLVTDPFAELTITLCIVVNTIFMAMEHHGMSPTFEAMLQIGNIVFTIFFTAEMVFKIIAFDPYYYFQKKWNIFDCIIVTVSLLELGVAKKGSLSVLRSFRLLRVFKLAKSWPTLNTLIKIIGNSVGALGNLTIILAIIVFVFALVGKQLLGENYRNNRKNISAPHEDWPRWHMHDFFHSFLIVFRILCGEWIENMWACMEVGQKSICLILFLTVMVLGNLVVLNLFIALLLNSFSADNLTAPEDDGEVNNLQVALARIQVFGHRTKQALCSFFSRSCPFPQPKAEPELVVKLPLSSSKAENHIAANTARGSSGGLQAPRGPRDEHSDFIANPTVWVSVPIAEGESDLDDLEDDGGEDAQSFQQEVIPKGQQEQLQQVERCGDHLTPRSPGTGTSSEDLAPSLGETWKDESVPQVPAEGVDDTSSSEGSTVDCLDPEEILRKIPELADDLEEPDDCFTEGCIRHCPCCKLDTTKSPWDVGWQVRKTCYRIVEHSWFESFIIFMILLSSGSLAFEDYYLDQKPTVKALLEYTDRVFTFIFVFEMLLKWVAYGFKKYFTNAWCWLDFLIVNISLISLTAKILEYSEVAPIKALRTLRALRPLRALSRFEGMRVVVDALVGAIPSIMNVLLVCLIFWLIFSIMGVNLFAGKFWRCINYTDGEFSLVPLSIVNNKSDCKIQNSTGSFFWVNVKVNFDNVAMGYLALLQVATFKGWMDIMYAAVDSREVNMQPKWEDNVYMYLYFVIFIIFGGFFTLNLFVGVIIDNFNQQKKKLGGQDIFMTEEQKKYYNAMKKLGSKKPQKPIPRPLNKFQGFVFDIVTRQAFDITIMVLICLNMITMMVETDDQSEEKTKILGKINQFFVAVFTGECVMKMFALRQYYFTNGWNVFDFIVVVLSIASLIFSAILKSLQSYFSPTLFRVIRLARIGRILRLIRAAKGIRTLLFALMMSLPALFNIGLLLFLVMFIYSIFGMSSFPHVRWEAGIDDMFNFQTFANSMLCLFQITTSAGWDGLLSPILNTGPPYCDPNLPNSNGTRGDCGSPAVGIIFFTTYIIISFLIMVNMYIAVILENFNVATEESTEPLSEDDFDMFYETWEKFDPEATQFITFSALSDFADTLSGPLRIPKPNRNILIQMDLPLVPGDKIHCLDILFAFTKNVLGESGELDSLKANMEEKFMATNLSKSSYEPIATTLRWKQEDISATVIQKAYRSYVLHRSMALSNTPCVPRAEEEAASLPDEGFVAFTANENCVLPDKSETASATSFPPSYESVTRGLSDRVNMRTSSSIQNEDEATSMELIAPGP
In words: Inhibition of Human NaV1.8 stably expressed in SH-SY-5Y cells (membrane potential dye fluorescence assay). The experiment is classed as cell-based. Conditions: SH-SY-5Y cells stably expressing hNaV1.8; FLIPR membrane potential dye; 10 μM pyrethroid, 250 nM TTX; test range 100 μM-0.05 μM; read-out: hNav1.8 IC50. Here is the method: Inhibition of Human NaV1.8 stably expressed in SH-SY-5Y cells
A SH-SY-5Y neuroblastoma cell line stably expressing the human NaV1.8 (hNaV1.8) ion channel was constructed. This cell line has been used to develop a medium to high throughput assay for determining the ability of test compounds to inhibit membrane depolarisation mediated via the hNaV1.8 channel.
SH-SY-5Y hNaV1.8 are grown in adherent monolayer culture using 50:50 Ham's F-12/EMEM tissue culture medium supplemented with 15% (v/v) foetal bovine serum; 2 mM L-glutamine, 1% NEAA and 600 μg·ml^−1 Geneticin sulphate. Cells are removed from the tissue culture flask using trypsin/EDTA and re-plated into black walled, clear bottom 96-well assay plates at 50,000 cells·well^−1 24 hours prior to assay.
On the day of assay the cell assay plates are washed to remove cell culture medium using a sodium free assay buffer (145 mM tetramethyl ammonium chloride; 2 mM calcium chloride; 0.8 mM magnesium chloride hexahydrate; 10 mM HEPES; 10 mM glucose; 5 mM potassium chloride, pH 7.4). Fluorescent membrane potential dye solution (FLIPR™ membrane potential dye, Molecular Devices Corporation), containing 10 μM of a pyrethroid to prevent channel inactivation and 250 nM tetrodotoxin (TTX) to reduce interference from TTX-sensitive sodium channels present in the cell line. Test compound, initially dissolved in dimethyl sulfoxide but further diluted in sodium free buffer, is added to achieve the final test concentration range of 100 μM-0.05 μM.
Cell plates are incubated for 30 minutes at room temperature to allow equilibration of dye and test compound. Plates are then transferred to a fluorescence plate reader for fluorescence measurement using an excitation wavelength of 530 nm whilst measuring fluorescence emission at 565 nm. […] Membrane depolarisation is registered by an increase in fluorescence emission at 565 nm.
The change in fluorescence seen in each test well upon the addition of sodium containing buffer is calculated relative to the baseline fluorescence for that well. This figure is then used for calculating the IC50 for each test compound.
As a reminder, the IC50 is the concentration at which inhibition is half-maximal. For `CC(NC1CN(C(=O)Nc2ccc(C(F)(F)F)cc2)C1)c1ccc(Oc2ccccc2)cc1` (stereo not shown) [Example 78, 3-[1-(4-Phenoxy-phenyl)-ethylamino]-azetidine-1-carboxylic acid (4-trifluoromethyl-phenyl)-amide], the IC50 is 1300 nM.

On to `CCCCOc1ccc(NC(=O)N2CC(NC(C)c3ccccc3C)C2)cc1` (stereo not shown) [Example 65, 3-(1-o-Tolyl-ethylamino)-azetidine-1-carboxylic acid (4-butoxy-phenyl)-amide], for which the half-inhibitory concentration (IC50) came out at 1420 nM.

Regarding `COc1ccc(C(C)NC2CN(C(=O)Nc3ccc(Oc4ccccc4)cc3)C2)cc1` (stereo not shown) [Example 54, 3-[1-(4-Methoxy-phenyl)-ethylamino]-azetidine-1-carboxylic acid (4-phenoxy-phenyl)-amide], the 50% inhibitory concentration (IC50) was 420 nM.

Take `CCCCOc1ccc(NC(=O)N2CC(NC(C)c3ccccc3Cl)C2)cc1` (stereo not shown) [Example 71, 3-[1-(2-Chloro-phenyl)-ethylamino]-azetidine-1-carboxylic acid (4-butoxy-phenyl)-amide]: the concentration for half-maximal inhibition (IC50) was determined as 770 nM.

As to `CC(c1ccccc1C(F)(F)F)N(C)C1CN(C(=O)Nc2ccc(Oc3ccccc3)cc2)C1` (stereo not shown) [Example 93, 3-{Methyl-[1-(2-trifluoromethyl-phenyl)-ethyl]-amino}-azetidine-1-carboxylic acid (4-phenoxy-phenyl)-amide], the half-maximal inhibitory concentration (IC50) amounted to 1800 nM.

`O=C(Cc1ccc(Oc2ccc(F)cc2)cc1)N1CC(NC2CCc3cc(F)ccc32)C1` (stereo not shown) [Example 48, 1-[3-(5-Fluoro-indan-1-ylamino)-azetidin-1-yl]-2-[4-(4-fluoro-phenoxy)-phenyl]-ethanone]: the IC50 came out at 690 nM.

Take `CC(NC(=O)N1CC(NC2Cc3ccccc3C2)C1)c1ccc(C(F)(F)F)cc1` (stereo not shown) [Example 3, 3-(Indan-2-ylamino)-azetidine-1-carboxylic acid [1-(4-trifluoromethyl-phenyl)-ethyl]-amide]: the IC50 worked out at 2980 nM.

As for `CC(NC1CN(C(=O)Nc2ccc(Oc3ccc(F)cc3)cc2)C1)c1ccc(C#N)cc1` (stereo not shown) [Example 127, 3-[1-(4-Cyano-phenyl)-ethylamino]-azetidine-1-carboxylic acid [4-(4-fluoro-phenoxy)-phenyl]-amide], the concentration for half-maximal inhibition (IC50) was 2110 nM.

As to `O=C(Nc1ccc(C(F)(F)F)cc1)N1CC(NC2CCCc3ccccc32)C1` (stereo not shown) [Example 36, 3-(1,2,3,4-Tetrahydro-naphthalen-1-ylamino)-azetidine-1-carboxylic acid (4-trifluoromethyl-phenyl)-amide], the IC50 was 2770 nM.

In the case of `O=C(Nc1ccc(Oc2ccccc2)cc1)N1CC(NC2COc3ccccc32)C1` (stereo not shown) [Example 123, 3-(2,3-Dihydro-benzofuran-3-ylamino)-azetidine-1-carboxylic acid (4-phenoxy-phenyl)-amide], the concentration for half-maximal inhibition (IC50) is 1700 nM.

With `CCCCOc1cccc(NC(=O)N2CC(N(C)C(C)c3ccc(F)cc3)C2)c1` (stereo not shown) [Example 85, 3-{[1-(4-Fluoro-phenyl)-ethyl]-methyl-amino}-azetidine-1-carboxylic acid (3-butoxy-phenyl)-amide], the IC50 is 1460 nM.

Take `CC(NC1CN(C(=O)Cc2ccc(Oc3ccccc3)cc2)C1)c1ccccc1` (stereo not shown) [Example 46, 2-(4-Phenoxy-phenyl)-1-[3-(1-phenyl-ethylamino)-azetidin-1-yl]-ethanone]: the IC50 worked out at 1070 nM.

For `Cc1ccccc1C(C)NC1CN(C(=O)Nc2ccc(C(F)(F)F)cc2)C1` (stereo not shown) [Example 104, 3-(1-o-Tolyl-ethylamino)-azetidine-1-carboxylic acid (4-trifluoromethyl-phenyl)-amide], the IC50 was 2540 nM.

With `O=C(Cc1ccc(Oc2ccccc2)cc1)N1CC(NC2CCc3cc(F)ccc32)C1` (stereo not shown) [Example 47, 1-[3-(5-Fluoro-indan-1-ylamino)-azetidin-1-yl]-2-(4-phenoxy-phenyl)-ethanone], the IC50 was found to be 1660 nM.

On to `O=C(Nc1ccc(Oc2ccccc2)cc1)N1CC(NC2CCc3cc(F)ccc32)C1` (stereo not shown) [Example 27, 3-(5-Fluoro-indan-1-ylamino)-azetidine-1-carboxylic acid (4-phenoxy-phenyl)-amide], for which the IC50 was found to be 270 nM.

Regarding `CC1CC(NC2CN(C(=O)Nc3ccc(Oc4ccccc4)cc3)C2)c2ccccc21` (stereo not shown) [Example 26, 3-(3-Methyl-indan-1-ylamino)-azetidine-1-carboxylic acid (4-phenoxy-phenyl)-amide], the IC50 was determined as 240 nM.

In the case of `CC(c1ccc(F)cc1Cl)N(C(=O)C(F)(F)F)C1CN(C(=O)Nc2ccc(Oc3ccccc3)cc2)C1` (stereo not shown) [Example 92, 3-[[1-(2-Chloro-4-fluoro-phenyl)-ethyl]-(2,2,2-trifluoro-acetyl)-amino]-azetidine-1-carboxylic acid (4-phenoxy-phenyl)-amide], the 50% inhibitory concentration (IC50) worked out at 15100 nM.

Turning to `CC(c1ccc(F)cc1Cl)N(C)C1CN(C(=O)Nc2cccc(Oc3ccccc3)c2)C1` (stereo not shown) [Example 100, 3-{[1-(2-Chloro-4-fluoro-phenyl)-ethyl]-methyl-amino}-azetidine-1-carboxylic acid (3-phenoxy-phenyl)-amide], the IC50 was determined as 1210 nM.

For `O=C(Nc1ccc(Oc2ccccc2)cc1)N1CC(NC2CCc3ccccc32)C1` (stereo not shown) [Example 30, 3-(Indan-1-ylamino)-azetidine-1-carboxylic acid (4-phenoxy-phenyl)-amide], the half-maximal inhibitory concentration (IC50) is 260 nM.

`O=C(c1ccccc1)c1ccc(NC(=O)N2CC(NC3CCc4cc(F)ccc43)C2)cc1` (stereo not shown) [Example 31, 3-(5-Fluoro-indan-1-ylamino)-azetidine-1-carboxylic acid (4-benzoyl-phenyl)-amide]: the half-maximal inhibitory concentration (IC50) turned out to be 7250 nM.

In the case of `CN(C(=O)N1CC(NC2CCc3cc(F)ccc32)C1)c1ccc(Oc2ccc(F)cc2)cc1` (stereo not shown) [Example 20, 3-(5-Fluoro-indan-1-ylamino)-azetidine-1-carboxylic acid [4-(4-fluoro-phenoxy)-phenyl]-methyl-amide], the IC50 turned out to be 700 nM.

As to `Cc1cc(F)ccc1C(C)NC1CN(C(=O)Nc2ccc(Oc3ccccc3)cc2)C1` (stereo not shown) [Example 111, 3-[1-(4-Fluoro-2-methyl-phenyl)-ethylamino]-azetidine-1-carboxylic acid (4-phenoxy-phenyl)-amide], the IC50 was found to be 630 nM.

As to `CC(c1ccc(OC(F)(F)F)cc1)N(C)C1CN(C(=O)Nc2ccc(Oc3ccccc3)cc2)C1` (stereo not shown) [Example 80, 3-{Methyl-[1-(4-trifluoromethoxy-phenyl)-ethyl]-amino}-azetidine-1-carboxylic acid (4-phenoxy-phenyl)-amide], the IC50 was determined as 1220 nM.

For the compound `O=C(Nc1ccc(Oc2ccccc2)cc1)N1CC(NC2CCc3ccccc3C2)C1` (stereo not shown) [Example 34, 3-(1,2,3,4-Tetrahydro-naphthalen-2-ylamino)-azetidine-1-carboxylic acid (4-phenoxy-phenyl)-amide], the IC50 came out at 100 nM.

Take `O=C(Nc1cccc(C(F)(F)F)c1)N1CC(NC2CCc3cc(F)ccc32)C1` (stereo not shown) [Example 24, 3-(5-Fluoro-indan-1-ylamino)-azetidine-1-carboxylic acid (3-trifluoromethyl-phenyl)-amide]: the IC50 was determined as 2680 nM.

`CC(c1ccc(F)cc1)N(C)C1CN(C(=O)Nc2cc(F)cc(C(F)(F)F)c2)C1` (stereo not shown) [Example 82, 3-{[1-(4-Fluoro-phenyl)-ethyl]-methyl-amino}-azetidine-1-carboxylic acid (3-fluoro-5-trifluoromethyl-phenyl)-amide]: the half-inhibitory concentration (IC50) came to 5730 nM.

On to `O=C(Nc1ccc(Oc2ccc(F)cc2)cc1)N1CC(NC2CCc3cc(O)ccc32)C1` (stereo not shown) [Example 12, 3-(5-Hydroxy-indan-1-ylamino)-azetidine-1-carboxylic acid [4-(4-fluoro-phenoxy)-phenyl]-amide], for which the half-inhibitory concentration (IC50) turned out to be 1350 nM.

For `O=C(Nc1ccc(OCc2ccccc2)cc1)N1CC(NCc2c(F)cccc2F)C1` [Example 52, 3-(2,6-Difluoro-benzylamino)-azetidine-1-carboxylic acid (4-benzyloxy-phenyl)-amide], the IC50 turned out to be 870 nM.

As to `CC(NC1CN(C(=O)Nc2ccc(C(F)(F)F)cc2)C1)c1ccc(F)cc1` (stereo not shown) [Example 56, 3-[1-(4-Fluoro-phenyl)-ethylamino]-azetidine-1-carboxylic acid (4-trifluoromethyl-phenyl)-amide], the IC50 was found to be 3280 nM.

For `CCCCOc1cccc(NC(=O)N2CC(N(C)C(C)c3ccccc3C)C2)c1` (stereo not shown) [Example 87, 3-[Methyl-(1-o-tolyl-ethyl)-amino]-azetidine-1-carboxylic acid (3-butoxy-phenyl)-amide], the concentration for half-maximal inhibition (IC50) stood at 1030 nM.

Staying with this experiment, now noted: hNav1.8 IC50, SH-SY-5Y cells stably expressing hNaV1.8; FLIPR membrane potential dye; 10 μM pyrethroid, 250 nM TTX; test range 100 μM-0.05 μM.
Compound `Cc1ccccc1CC(C)NC1CN(C(=O)NC(C)c2ccc(C(F)(F)F)cc2)C1` (stereo not shown) [Example 1, 3-(1-Methyl-2-o-tolyl-ethylamino)-azetidine-1-carboxylic acid [1-(4-trifluoromethyl-phenyl)-ethyl]-amide] yielded an IC50 of 1300 nM.
